Assays:
Type in all cases: functional
CAKI-1 = assay: Growth inhibition of human CAKI1 cells after 48 hrs by SRB protein assay; settings: CAKI-1, 48 h
UACC-257 = assay: Growth inhibition of human UACC257 cells after 48 hrs by SRB protein assay; settings: UACC-257, 48 h
MCF7 [1] = assay: Anticancer activity against human MCF7 cells assessed as growth of cells at 100 uM relative to untreated cells
SF-295 = assay: Growth inhibition of human SF295 cells after 48 hrs by SRB protein assay; settings: SF-295, 48 h
SK-MEL-28 = assay: Growth inhibition of human SK-MEL-28 cells after 48 hrs by SRB protein assay; settings: SK-MEL-28, 48 h
SW-620 = assay: Growth inhibition of human SW620 cells after 48 hrs by SRB protein assay; settings: SW-620, 48 h
MDA-MB-435 = assay: Growth inhibition of human MDA-MB-435 cells after 48 hrs by SRB protein assay; settings: MDA-MB-435, 48 h
OVCAR-4 = assay: Growth inhibition of human OVCAR4 cells after 48 hrs by SRB protein assay; settings: OVCAR-4, 48 h
HCC 2998 = assay: Growth inhibition of human HCC2998 cells after 48 hrs by SRB protein assay; settings: HCC 2998, 48 h
HOP-92 = assay: Growth inhibition of human HOP92 cells after 48 hrs by SRB protein assay; settings: HOP-92, 48 h
M14 = assay: Growth inhibition of human M14 cells after 48 hrs by SRB protein assay; settings: M14, 48 h
UACC-62 = assay: Growth inhibition of human UACC62 cells after 48 hrs by SRB protein assay; settings: UACC-62, 48 h
SK-OV-3 = assay: Growth inhibition of human SK-OV-3 cells after 48 hrs by SRB protein assay; settings: SK-OV-3, 48 h
NCI-H322M = assay: Growth inhibition of human NCI-H322M cells after 48 hrs by SRB protein assay
OVCAR-8 = assay: Growth inhibition of human OVCAR8 cells after 48 hrs by SRB protein assay; settings: OVCAR-8, 48 h
U-251 = assay: Growth inhibition of human U251 cells after 48 hrs by SRB protein assay; settings: U-251, 48 h
SK-MEL-5 = assay: Growth inhibition of human SK-MEL-5 cells after 48 hrs by SRB protein assay; settings: SK-MEL-5, 48 h
SN12C = assay: Growth inhibition of human SN12C cells after 48 hrs by SRB protein assay
CCRF-CEM = assay: Growth inhibition of human CCRF-CEM cells after 48 hrs by SRB protein assay
OVCAR-5 = assay: Growth inhibition of human OVCAR5 cells after 48 hrs by SRB protein assay; settings: OVCAR-5, 48 h
PC-3 = assay: Growth inhibition of human PC3 cells after 48 hrs by SRB protein assay; settings: PC-3, 48 h
LOX IMVI = assay: Growth inhibition of human LOX IMVI cells after 48 hrs by SRB protein assay
IGROV-1 = assay: Growth inhibition of human IGROV1 cells after 48 hrs by SRB protein assay; settings: IGROV-1, 48 h
Hs-578T = assay: Growth inhibition of human HS578T cells after 48 hrs by SRB protein assay
[2] = Growth inhibition of human MALME 3M cells after 48 hrs by SRB protein assay
UO-31 = assay: Growth inhibition of human UO31 cells after 48 hrs by SRB protein assay; settings: UO-31, 48 h
RPMI-8226 = assay: Growth inhibition of human RPMI8226 cells after 48 hrs by SRB protein assay; settings: RPMI-8226, 48 h
NCI-H460 [3] = assay: Growth inhibition of human NCI-H460 cells after 48 hrs by SRB protein assay; settings: NCI-H460, 48 h
[4] = Growth inhibition of human MDA-MB-231/ATCC cells after 48 hrs by SRB protein assay; settings: MDA-MB-231, 48 h
HCT-15 = assay: Growth inhibition of human HCT15 cells after 48 hrs by SRB protein assay; settings: HCT-15, 48 h
A549 = assay: Growth inhibition of human A549/ATCC cells after 48 hrs by SRB protein assay; settings: A549, 48 h
KM12 = assay: Growth inhibition of human KM12 cells after 48 hrs by SRB protein assay; settings: KM12, 48 h
TK-10 = assay: Growth inhibition of human TK10 cells after 48 hrs by SRB protein assay; settings: TK-10, 48 h
COLO 205 = assay: Growth inhibition of human COLO205 cells after 48 hrs by SRB protein assay; settings: COLO 205, 48 h
OVCAR-3 = assay: Growth inhibition of human OVCAR-3 cells after 48 hrs by SRB protein assay; settings: OVCAR-3, 48 h
SF-268 [5] = assay: Growth inhibition of human SF268 cells after 48 hrs by SRB protein assay; settings: SF-268, 48 h
SF-268 [6] = assay: Anticancer activity against human SF268 cells assessed as growth of cells at 100 uM relative to untreated cells
MCF7 [7] = assay: Growth inhibition of human MCF7 cells after 48 hrs by SRB protein assay; settings: MCF7, 48 h
NCI-H460 [8] = assay: Anticancer activity against human NCI-H460 cells assessed as growth of cells at 100 uM relative to untreated cells
ACHN = assay: Growth inhibition of human ACHN cells after 48 hrs by SRB protein assay

O=C(CC1Sc2ncnn2C1=O)Nc1ccc(Cl)cc1 (configuration not stated)
GI50 (CAKI-1): > 100 µM
TGI (CAKI-1; read-out: Log TGI (converted)): > 100 µM
GI50 (UACC-257): 40.7 µM
TGI (UACC-257; read-out: Log TGI (converted)): > 100 µM
Activity (MCF7 [1]): 0%
GI50 (SF-295): > 100 µM
TGI (SF-295; read-out: Log TGI (converted)): > 100 µM
GI50 (SK-MEL-28): 22.9 µM
TGI (SK-MEL-28; read-out: Log TGI (converted)): 57.5 µM
GI50 (SW-620): 32.4 µM
TGI (SW-620; read-out: Log TGI (converted)): 79.4 µM
GI50 (MDA-MB-435): 55 µM
TGI (MDA-MB-435; read-out: Log TGI (converted)): > 100 µM
GI50 (OVCAR-4): 31.6 µM
TGI (OVCAR-4; read-out: Log TGI (converted)): 83.2 µM
GI50 (HCC 2998): 38 µM
TGI (HCC 2998; read-out: Log TGI (converted)): > 100 µM
GI50 (HOP-92): 25.1 µM
TGI (HOP-92; read-out: Log TGI (converted)): 64.6 µM
GI50 (M14): 35.5 µM
TGI (M14; read-out: Log TGI (converted)): > 100 µM
GI50 (UACC-62): > 100 µM
TGI (UACC-62; read-out: Log TGI (converted)): > 100 µM
GI50 (SK-OV-3): > 100 µM
TGI (SK-OV-3; read-out: Log TGI (converted)): > 100 µM
GI50 (NCI-H322M): > 100 µM
TGI (NCI-H322M; read-out: Log TGI (converted)): > 100 µM
GI50 (OVCAR-8): > 100 µM
TGI (OVCAR-8; read-out: Log TGI (converted)): > 100 µM
GI50 (U-251): 18.2 µM
TGI (U-251; read-out: Log TGI (converted)): 33.9 µM
GI50 (SK-MEL-5): > 100 µM
TGI (SK-MEL-5; read-out: Log TGI (converted)): > 100 µM
GI50 (SN12C): 22.9 µM
TGI (SN12C; read-out: Log TGI (converted)): 53.7 µM
GI50 (CCRF-CEM): 19.1 µM
TGI (CCRF-CEM; read-out: Log TGI (converted)): 41.7 µM
GI50 (OVCAR-5): 22.4 µM
TGI (OVCAR-5; read-out: Log TGI (converted)): 56.2 µM
GI50 (PC-3): 55 µM
TGI (PC-3; read-out: Log TGI (converted)): > 100 µM
GI50 (LOX IMVI): 20.4 µM
TGI (LOX IMVI; read-out: Log TGI (converted)): 45.7 µM
GI50 (IGROV-1): > 100 µM
TGI (IGROV-1; read-out: Log TGI (converted)): > 100 µM
GI50 (Hs-578T): > 100 µM
TGI (Hs-578T; read-out: Log TGI (converted)): > 100 µM
GI50 [2]: 14.8 µM
TGI ([2]; read-out: Log TGI (converted)): 38.9 µM
GI50 (UO-31): 22.9 µM
TGI (UO-31; read-out: Log TGI (converted)): 45.7 µM
GI50 (RPMI-8226): 24 µM
TGI (RPMI-8226; read-out: Log TGI (converted)): 100 µM
GI50 (NCI-H460 [3]): > 100 µM
TGI (NCI-H460 [3]; read-out: Log TGI (converted)): > 100 µM
GI50 [4]: 31.6 µM
TGI ([4]; read-out: Log TGI (converted)): 83.2 µM
GI50 (HCT-15): 15.8 µM
TGI (HCT-15; read-out: Log TGI (converted)): 40.7 µM
GI50 (A549): > 100 µM
TGI (A549; read-out: Log TGI (converted)): > 100 µM
GI50 (KM12): > 100 µM
TGI (KM12; read-out: Log TGI (converted)): > 100 µM
GI50 (TK-10): 20.9 µM
TGI (TK-10; read-out: Log TGI (converted)): 39.8 µM
GI50 (COLO 205): 19.5 µM
TGI (COLO 205; read-out: Log TGI (converted)): 47.9 µM
GI50 (OVCAR-3): 21.9 µM
TGI (OVCAR-3; read-out: Log TGI (converted)): 51.3 µM
GI50 (SF-268 [5]): > 100 µM
TGI (SF-268 [5]; read-out: Log TGI (converted)): > 100 µM
Activity (SF-268 [6]): 107%
GI50 (MCF7 [7]): 43.7 µM
TGI (MCF7 [7]; read-out: Log TGI (converted)): > 100 µM
Activity (NCI-H460 [8]): 0%
GI50 (ACHN): 17.4 µM
TGI (ACHN; read-out: Log TGI (converted)): 30.9 µM

From ChEMBL document CHEMBL1147193, “New 5-substituted thiazolo[3,2-b][1,2,4]triazol-6-ones: synthesis and anticancer evaluation” (2007)
